According to patent US20060223846A1, “Aza-bridged-bicyclic amino acid derivatives as alpha4 integrin antagonists” (priority 2005, published 2006):

Tests used:
human α4β7 = target: T1, human α4β7 (Homo sapiens, UniProt P13612+P26010); test: α4β7-K562 Cell Adhesion Assay (α4β7 Mediated Adhesion/VCAM-1); type: cell-based; conditions: K562 cells expressing human α4β7 on recombinant hVCAM-1; read-out: α4β7 IC50
T1 construct: expressed in transfected cells
T1 sequence (P13612 34-1032): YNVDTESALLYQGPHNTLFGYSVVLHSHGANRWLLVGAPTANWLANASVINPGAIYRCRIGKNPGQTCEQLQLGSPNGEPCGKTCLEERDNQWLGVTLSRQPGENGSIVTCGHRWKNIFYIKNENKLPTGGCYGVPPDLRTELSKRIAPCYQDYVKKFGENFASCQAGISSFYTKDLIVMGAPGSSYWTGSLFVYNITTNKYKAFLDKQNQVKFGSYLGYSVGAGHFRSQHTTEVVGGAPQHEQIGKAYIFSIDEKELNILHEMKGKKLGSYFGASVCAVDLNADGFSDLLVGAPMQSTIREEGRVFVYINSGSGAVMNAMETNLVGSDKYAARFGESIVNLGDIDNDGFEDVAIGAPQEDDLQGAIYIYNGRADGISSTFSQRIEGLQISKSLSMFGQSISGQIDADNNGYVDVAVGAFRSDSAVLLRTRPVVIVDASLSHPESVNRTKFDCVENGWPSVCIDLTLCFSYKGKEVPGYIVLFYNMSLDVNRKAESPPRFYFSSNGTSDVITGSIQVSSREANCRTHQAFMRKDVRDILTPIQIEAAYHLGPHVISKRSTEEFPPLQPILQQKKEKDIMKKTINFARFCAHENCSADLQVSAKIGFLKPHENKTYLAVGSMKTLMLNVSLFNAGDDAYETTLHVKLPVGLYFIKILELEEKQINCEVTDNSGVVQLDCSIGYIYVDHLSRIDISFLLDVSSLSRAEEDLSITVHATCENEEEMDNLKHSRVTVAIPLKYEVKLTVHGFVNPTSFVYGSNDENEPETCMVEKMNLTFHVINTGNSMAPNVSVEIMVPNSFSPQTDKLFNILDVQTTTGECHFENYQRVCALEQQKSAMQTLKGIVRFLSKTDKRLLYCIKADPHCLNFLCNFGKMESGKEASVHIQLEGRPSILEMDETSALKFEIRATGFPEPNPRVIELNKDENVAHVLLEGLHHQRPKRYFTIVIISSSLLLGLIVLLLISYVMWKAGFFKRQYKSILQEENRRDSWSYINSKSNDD
T1 sequence (P26010 20-798): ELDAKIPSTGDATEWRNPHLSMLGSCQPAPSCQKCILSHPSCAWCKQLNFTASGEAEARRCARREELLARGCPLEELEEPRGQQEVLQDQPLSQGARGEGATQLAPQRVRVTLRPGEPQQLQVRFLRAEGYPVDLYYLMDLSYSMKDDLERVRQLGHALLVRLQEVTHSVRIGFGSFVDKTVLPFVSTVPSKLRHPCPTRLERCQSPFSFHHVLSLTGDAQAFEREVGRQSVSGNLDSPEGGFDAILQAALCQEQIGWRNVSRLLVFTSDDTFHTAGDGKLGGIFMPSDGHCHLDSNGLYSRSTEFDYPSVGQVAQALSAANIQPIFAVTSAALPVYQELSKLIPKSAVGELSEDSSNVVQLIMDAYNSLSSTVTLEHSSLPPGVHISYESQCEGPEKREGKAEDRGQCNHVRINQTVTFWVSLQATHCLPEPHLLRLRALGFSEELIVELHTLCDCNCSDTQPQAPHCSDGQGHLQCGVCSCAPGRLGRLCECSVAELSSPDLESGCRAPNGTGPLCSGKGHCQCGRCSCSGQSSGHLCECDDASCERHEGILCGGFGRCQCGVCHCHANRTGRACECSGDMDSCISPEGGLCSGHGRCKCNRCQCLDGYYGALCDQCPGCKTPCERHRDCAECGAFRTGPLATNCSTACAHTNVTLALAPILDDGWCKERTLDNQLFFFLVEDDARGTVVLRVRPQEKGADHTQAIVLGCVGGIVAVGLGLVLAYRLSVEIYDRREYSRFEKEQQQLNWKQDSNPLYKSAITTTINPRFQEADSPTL
Protocol: (§1) α4β7-K562 Cell Adhesion Assay (α4β7 Mediated Adhesion/VCAM-1) Immulon 96 well plates (Dynex) were coated with 100 μL recombinant hVCAM-1 at 4.0 μg/mL in 0.05 M NaCO3 buffer pH 9.0 overnight at 4° C. (R&D System). Plates were washed 3 times in PBS with 1% BSA and blocked for 1 h @ room temperature in this buffer. PBS was removed and compounds to be tested (50 μL) were added at 2× concentration. A stable cell line of K562 cells expressing human α4β7, (50 μL at 2×10^6/mL) labeled with 5 μM Calcein AM (Molecular Probes) for 1 h at 37° C., were added to each well and allowed to adhere for 1 h at room temperature. Plates were washed 3× in PBS+1% BSA and cells were lysed for 15 minutes in 100 μL of 1 M Tris pH 8.0 with 1% SDS. The plate was read at 485 nm excitation and 530 nm emission.

α4β1 = α4β1 (Homo sapiens, UniProt P05556+P13612); test: Ramos Cell Adhesion Assay (α4β1 Mediated Adhesion/VCAM-1); type: cell-based; parameters: Ramos cells, (50 μL at 2×10^6/mL) labeled with 5 μM Calcein AM; endogenous in cells; host or cells: Ramos cells; conditions: Ramos cells on recombinant hVCAM-1; read-out: α4β1 IC50
α4β1, sequence (P05556 21-798, one chain of several): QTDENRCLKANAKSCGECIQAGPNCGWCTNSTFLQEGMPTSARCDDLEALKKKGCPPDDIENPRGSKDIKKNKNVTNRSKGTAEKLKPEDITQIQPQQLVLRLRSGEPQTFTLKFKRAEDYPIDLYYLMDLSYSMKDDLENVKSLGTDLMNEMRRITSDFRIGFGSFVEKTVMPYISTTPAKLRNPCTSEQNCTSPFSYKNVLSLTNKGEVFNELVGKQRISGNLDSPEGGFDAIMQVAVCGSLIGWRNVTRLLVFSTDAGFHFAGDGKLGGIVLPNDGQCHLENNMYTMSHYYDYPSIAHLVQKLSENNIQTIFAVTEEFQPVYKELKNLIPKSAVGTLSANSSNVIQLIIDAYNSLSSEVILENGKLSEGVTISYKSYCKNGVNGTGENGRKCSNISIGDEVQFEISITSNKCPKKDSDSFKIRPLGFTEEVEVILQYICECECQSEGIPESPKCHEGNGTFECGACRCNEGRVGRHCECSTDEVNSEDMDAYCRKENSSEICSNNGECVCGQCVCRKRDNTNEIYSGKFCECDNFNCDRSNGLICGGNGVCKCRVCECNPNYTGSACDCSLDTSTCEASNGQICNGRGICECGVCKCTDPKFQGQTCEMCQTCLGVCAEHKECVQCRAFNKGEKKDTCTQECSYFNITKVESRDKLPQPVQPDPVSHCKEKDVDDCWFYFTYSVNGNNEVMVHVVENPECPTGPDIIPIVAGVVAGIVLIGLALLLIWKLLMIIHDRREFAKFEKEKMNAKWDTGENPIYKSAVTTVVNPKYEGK
Protocol: as §1, with “Ramos” for “α4β7-K562”, “α4β1” for “(α4β7”, “[…]” for “96”, “Systems).” for “System).”, “Ramos cells,” for “A stable cell line of K562 cells expressing human α4β7,”

| SMILES | IC50 (human α4β7) [nM] | IC50 (α4β1) [nM] |
| --- | --- | --- |
| O=C(Nc1ccc(CC(NC(=O)C2C3CCC(CC3)N2C(=O)c2ccccc2F)C(=O)O)cc1)c1c(Cl)cncc1Cl (mixture of isomers) [Cpd 9] | 151 | 436 |
| CCCCCC12CCC(C(=O)N3C4CCC(CC4)C3C(=O)NC(Cc3ccc(NC(=O)c4c(Cl)cncc4Cl)cc3)C(=O)O)(CC1)CC2 (mixture of isomers) [Cpd 13] | > 5000 | > 5000 |
| O=C(Nc1ccc(CC(NC(=O)C2C3CCC(CC3)N2C(=O)Cc2ccsc2)C(=O)O)cc1)c1c(Cl)cncc1Cl (mixture of isomers) [Cpd 60] | 233 | 156 |
| CC(C)(C)CC(=O)N1C2CCC(CC2)C1C(=O)NC(Cc1ccc(NC(=O)c2c(Cl)cncc2Cl)cc1)C(=O)O (single isomer, unassigned) [Cpd 34] | 47 | 14 |
| COc1cccc(CC(=O)N2C3CCC(CC3)C2C(=O)NC(Cc2ccc(NC(=O)c3c(Cl)cncc3Cl)cc2)C(=O)O)c1 (centres unmarked) [Cpd 1] | 93 | 156 |
| O=C(Nc1ccc(CC(NC(=O)C2C3CCC(CC3)N2C(=O)Cc2ccccc2C(F)(F)F)C(=O)O)cc1)c1c(Cl)cncc1Cl (centres unmarked) [Cpd 2] | 316 | 164 |
| O=C(Nc1ccc(CC(NC(=O)C2C3CCC(CC3)N2C(=O)Cc2ccccn2)C(=O)O)cc1)c1c(Cl)cncc1Cl (centres unmarked) [Cpd 4] | 32 | 25 |
| O=C(Nc1ccc(CC(NC(=O)C2C3CCC(CC3)N2C(=O)Cc2cccnc2)C(=O)O)cc1)c1c(Cl)cncc1Cl (centres unmarked) [Cpd 5] | 62 | 20 |
| O=C(Nc1ccc(CC(NC(=O)C2C3CCC(CC3)N2C(=O)Cc2c(Cl)cccc2Cl)C(=O)O)cc1)c1c(Cl)cncc1Cl (centres unmarked) [Cpd 6] | 387 | 234 |
| O=C(Nc1ccc(CC(NC(=O)C2C3CCC(CC3)N2C(=O)Cc2ccc3ccccc3c2)C(=O)O)cc1)c1c(Cl)cncc1Cl (centres unmarked) [Cpd 7] | 44 | 63 |
| COc1ccc(OC)c(C(=O)N2C3CCC(CC3)C2C(=O)NC(Cc2ccc(NC(=O)c3c(Cl)cncc3Cl)cc2)C(=O)O)c1 (centres unmarked) [Cpd 8] | 1020 | 188 |
| O=C(Nc1ccc(CC(NC(=O)C2C3CCC(CC3)N2C(=O)c2cc(Cl)cc(Cl)c2)C(=O)O)cc1)c1c(Cl)cncc1Cl (centres unmarked) [Cpd 10] | 185 | 842 |
| O=C(Nc1ccc(CC(NC(=O)C2C3CCC(CC3)N2C(=O)c2ccccc2C(F)(F)F)C(=O)O)cc1)c1c(Cl)cncc1Cl (centres unmarked) [Cpd 12] | 739 | 460 |
| O=C(Nc1ccc(CC(NC(=O)C2C3CCC(CC3)N2C(=O)c2c(Cl)cccc2Cl)C(=O)O)cc1)c1c(Cl)cncc1Cl (centres unmarked) [Cpd 14] | > 5000 | > 5000 |
| Cc1ccnn1CC(=O)N1C2CCC(CC2)C1C(=O)NC(Cc1ccc(NC(=O)c2c(Cl)cncc2Cl)cc1)C(=O)O (centres unmarked) [Cpd 15] | 39 | 69 |
| O=C(Nc1ccc(CC(NC(=O)C2C3CCC(CC3)N2Cc2ccccc2)C(=O)O)cc1)c1c(Cl)cncc1Cl (centres unmarked) [Cpd 18] | 309 | 543 |

| SMILES | IC50 (human α4β7) [nM] | IC50 (α4β1) [nM] |
| --- | --- | --- |
| O=C(Nc1ccc(CC(NC(=O)C2C3CCC(CC3)N2Cc2ccc(Cl)s2)C(=O)O)cc1)c1c(Cl)cncc1Cl (centres unmarked) [Cpd 19] | > 5000 | 2560 |
| O=C(Nc1ccc(CC(NC(=O)C2C3CCC(CC3)N2C(=O)Nc2ccccc2)C(=O)O)cc1)c1c(Cl)cncc1Cl (centres unmarked) [Cpd 20] | 287 | 259 |
| Cc1ccc(NC(=O)N2C3CCC(CC3)[C@H]2C(=O)N[C@@H](Cc2ccc(NC(=O)c3c(Cl)cncc3Cl)cc2)C(=O)O)cc1 [Cpd 21, 3-{4-[(3,5-dichloro-pyridine-4-carbonyl)-amino]-phenyl}-2-[(2-p-tolylcarbamoyl-2-aza-bicyclo[2.2.2]octane-3-carbonyl)-amino]-propionic acid] | 124 | 585 |
| O=C(Nc1ccc(CC(NC(=O)C2C3CCC(CC3)N2C(=O)Nc2ccccc2Cl)C(=O)O)cc1)c1c(Cl)cncc1Cl (centres unmarked) [Cpd 22] | 670 | 380 |
| O=C(Nc1ccc(CC(NC(=O)C2C3CCC(CC3)N2C(=O)Nc2cccc(Cl)c2)C(=O)O)cc1)c1c(Cl)cncc1Cl (centres unmarked) [Cpd 23] | 444 | 248 |
| O=C(Nc1ccc(CC(NC(=O)C2C3CCC(CC3)N2C(=O)Nc2ccc(Cl)cc2)C(=O)O)cc1)c1c(Cl)cncc1Cl (centres unmarked) [Cpd 24] | 743 | 591 |
| O=C(Nc1ccc(CC(NC(=O)C2C3CCC(CC3)N2C(=O)NCc2ccccc2)C(=O)O)cc1)c1c(Cl)cncc1Cl (centres unmarked) [Cpd 25] | 379 | 72 |
| CC(C)(C)CC(=O)N1C2CCC(CC2)C1C(=O)NC(Cc1ccc(NC(=O)c2c(Cl)cncc2Cl)cc1)C(=O)O (centres unmarked) [Cpd 27] | 834 | 386 |
| O=C(Nc1ccc(CC(NC(=O)C2C3CCC(CC3)N2C(=O)CCC2CCCC2)C(=O)O)cc1)c1c(Cl)cncc1Cl (centres unmarked) [Cpd 28] | 150 | 89 |
| COc1ccccc1CC(=O)N1C2CCC(CC2)C1C(=O)NC(Cc1ccc(NC(=O)c2c(Cl)cncc2Cl)cc1)C(=O)O (centres unmarked) [Cpd 29] | 27 | 28 |
| COc1ccc(CC(=O)N2C3CCC(CC3)C2C(=O)NC(Cc2ccc(NC(=O)c3c(Cl)cncc3Cl)cc2)C(=O)O)cc1 (centres unmarked) [Cpd 30] | 71 | 115 |
| COc1cc(CC(=O)N2C3CCC(CC3)C2C(=O)NC(Cc2ccc(NC(=O)c3c(Cl)cncc3Cl)cc2)C(=O)O)cc(OC)c1 (centres unmarked) [Cpd 31] | 106 | 8 |
| O=C(Nc1ccc(CC(NC(=O)C2C3CCC(CC3)N2C(=O)Cc2cccs2)C(=O)O)cc1)c1c(Cl)cncc1Cl (centres unmarked) [Cpd 32] | 30 | 12 |
| CC(C)(C)OC(=O)N1CCN(CCC(=O)N2C3CCC(CC3)C2C(=O)NC(Cc2ccc(NC(=O)c3c(Cl)cncc3Cl)cc2)C(=O)O)CC1 (centres unmarked) [Cpd 35] | > 5000 | 122 |
| O=C(Nc1ccc(CC(NC(=O)C2C3CCC(CC3)N2C(=O)Cc2csc3ccccc23)C(=O)O)cc1)c1c(Cl)cncc1Cl (centres unmarked) [Cpd 36] | 66 | 55 |
